Measurements reported in patent publication US12139481B2, “Compositions comprising macrocycle derivatives incorporating bridged macrocycles and methods of producing and using same” (Southwestern Oklahoma State University, priority 2015, dated 2024).
Several values for one entry are separate records, joined by “and”; a condition that tells them apart may be missing. Equal entries are not always repeated.

Legend:
[1] = system: L. donovani promastigotes; assay: Antileishmanial Alamar Blue assay on promastigotes; format: cell-based, Leishmania donovani; conditions: for X more potent than Pentamidine: L. donovani, ratio of molar IC50 to Pentamidine; for L. donovani IC50 / IC50: promastigotes, 48 hours, Alamar Blue; for IC50: read-out: L. donavani IC50
How it was run: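 Alamar Blue fluorescence (544/590 nm) quantified growth after 48 hours at 26° C of compound-treated promastigotes. Parasites were seeded at 5×10^5/mL in RPMI 1640 plus 10% FCS; drug range 50-3.1 μg/mL, and IC50 derived by plotting percent growth against test concentration.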

[2] = system: Cryptococcus neoformans ATCC 90113; assay: Antimicrobial microdilution assay against Cryptococcus neoformans (modified CLSI/NCCLS, optical density); format: cell-based; conditions: for X more potent than Amphotericin B: C. neoformans, ratio of molar IC50 to Amphotericin B; for C. neoformans IC50 / IC50: in vitro, C. neoformans ATCC 90113; for IC50: read-out: C. neoformans IC50 (mol/L)
How it was run: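 Fungicidal endpoint taken by subculturing 5 μL from each clear well onto agar, MFC being the lowest concentration with no regrowth. Duplicate wells of serially diluted compound (20% DMSO/saline) in RPMI pH 6.0, read at 630 nm pre- and post-incubation, under modified CLSI methods. IC50 means 50% growth inhibition against controls.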

[3] = system: S. mansoni newly transformed schistosomula (NTS); assay: In vitro testing on Schistosoma mansoni newly transformed schistosomula (NTS), viability score; format: cell-based; conditions: NTS S. mansoni, 33 μM, 72 h
Description: Assays were prepared according to the laboratory SOP for the lab of Dr. Jennifer Keiser (Swiss Tropical and Public Health Institute, Basel). Harvested S. mansoni cercariae (Liberian strain) obtained from infected Biomphalaria glabrata snails were mechanically transformed into newly transformed schistosomula (NTS) following standard procedures. Briefly, snails were placed under light in the morning to stimulate cercarial shedding. The cercarial suspension was collected, cooled for 30 minutes, and then vigorously pipetted (30×) and vortexed (3 minutes). The suspension was then placed in the incubator (37° C. and 5% CO2) for 30 minutes, and the vortexing and pipetting steps were repeated. The transformation was complete at this point, and the tails were separated from the heads by rinsing three times with cold HBSS. NTS were then incubated overnight in culture medium overnight and used the next day.
The original stock compounds (which were not already dissolved) were dissolved in dimethyl sulfoxide (DMSO) to a concentration of 10 mM. 100 NTS were placed in each well of a 96-well plate with culture medium, and the test compound for a final well volume of 250 μl. […] NTS incubated with no more than 1% DMSO served as control. NTS were kept in an incubator at 37° C. and 5% CO2 for up to 72 hours. After 72 hours, the condition of the NTS was microscopically evaluated using a scale from 3 (normal activity and no tegument alteration) to 0 (dead, completely granulated).

C. glabrata ATCC 90030 = assay: Antifungal broth dilution assay against C. glabrata (modified CLSI); format: cell-based, Candida glabrata; conditions: for C. glabrata IC50 / IC50: in vitro; for IC50: converted with molecular weight; for X more potent than Amphotericin B: molar IC50 ratio versus amphotericin B
How it was run: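 Growth read by optical density at 530 nm, duplicate wells, 1% final DMSO. Staphylococcus spp.: Mueller-Hinton pH 7.3, 5.0×10^5 CFU/ml, 35 °C for 16-20 h; Candida spp.: RPMI/dextrose/glutamine/MOPS pH 6.0, 1.5×10^3 CFU/ml, 35 °C for 46-50 h. Reported values are 50% inhibition versus controls, no-growth MIC, and killing MFC/MBC.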

Compound	X more potent than Pentamidine [1]	L. donovani IC50 [1]	IC50 [1]	X more potent than Amphotericin B [2]	C. neoformans IC50 [2]	IC50 [2]	Effect at 72 h (%) [3]	C. glabrata IC50 (C. glabrata ATCC 90030)	IC50 (C. glabrata ATCC 90030)	X more potent than Amphotericin B (C. glabrata ATCC 90030)
Cl.Cl.Cl.Cl.Cl.Cl.Cl.Cl.O.O.O.O.c1cc(CN2CCCN3CCN(CCCNCC2)CC3)cc(CN2CCCN3CCN(CCCNCC2)CC3)c1 [KS226, m-SB-cyclams HCl salt]	0.28	17.61 µg/mL	19200 nM	3.13	0.070 µg/mL	76.2 nM	5.41%			
CC(=O)[O-].CC(=O)[O-].CC(=O)[O-].CN1CCN2CCN(CC1)CCN(Cc1cc(CN3CCN4CCN(C)CCN(CC4)CC3)cc(CN3CCN4CCN(C)CCN(CC4)CC3)c1)CC2.F[P-](F)(F)(F)(F)F.F[P-](F)(F)(F)(F)F.F[P-](F)(F)(F)(F)F.O.O.O.O.O.O.[Ni+2].[Ni+2].[Ni+2] [BNS19]							18.02%	4.900 µg/mL	2970 nM	0.48
CC(=O)[O-].CC(=O)[O-].CC(=O)[O-].F[P-](F)(F)(F)(F)F.F[P-](F)(F)(F)(F)F.F[P-](F)(F)(F)(F)F.O.[Ni+2].[Ni+2].[Ni+2].c1c(CN2CCNCCN3CCN(CC3)CC2)cc(CN2CCNCCN3CCN(CC3)CC2)cc1CN1CCNCCN2CCN(CC2)CC1 [CDG030, [Ni3(tris-SB-Cyclens)0Ac)3][PF6]3•H2O]				0.45	≤ 0.800 µg/mL	528 nM	18.02%	4.170 µg/mL	2750 nM	0.52
CC(=O)[O-].F[P-](F)(F)(F)(F)F.[Ni+2].c1ccc(CN2CCN3CCN(CC2)CCN(Cc2ccccc2)CC3)cc1 [TC10, [Ni(Bn2Bcyclen)(OAc)]PF6]	0.31	10.95 µg/mL	17100 nM				30.63%			
CC(=O)[O-].CC(=O)[O-].CN(C)C=O.F[P-](F)(F)(F)(F)F.F[P-](F)(F)(F)(F)F.[Co+2].[Co+2].c1cc(CN2CCNCCN3CCN(CC3)CC2)ccc1CN1CCNCCN2CCN(CC2)CC1 [OB30, [Co2(p-SB-Cyclens)(OAc)2][PF6]2•DMF]				0.33	≤ 0.800 µg/mL	729 nM	5.41%	0.800 µg/mL	729 nM	1.95
CC(=O)[O-].CC(=O)[O-].CC(=O)[O-].F[P-](F)(F)(F)(F)F.F[P-](F)(F)(F)(F)F.F[P-](F)(F)(F)(F)F.F[P-](F)(F)(F)(F)F.[NH4+].[Zn+2].[Zn+2].[Zn+2].c1c(CN2CCCN3CCN(CCCNCC2)CC3)cc(CN2CCCN3CCN(CCCNCC2)CC3)cc1CN1CCCN2CCN(CCCNCC1)CC2 [CDG026, [Zn3(tris-SB-Cyclams)(OAc)3][PF6]3•NH4PF6]				0.04	10.030 µg/mL	5680 nM	11.71%	3.420 µg/mL	1940 nM	0.73
CN1CCCN2CCN(CCCN(Cc3cc(CN4CCCN5CCN(C)CCCN(CC5)CC4)cc(CN4CCCN5CCN(C)CCCN(CC5)CC4)c3)CC2)CC1 [BNS018, tris-CB-cyclams]	0.57	7.73 µg/mL	9250 nM	2.21	0.090 µg/mL	108 nM	11.71%			
[Ni(Bn1Me1Bcyclam)(OAc)]PF6•0.5NH4PF6 [TRH11B]	0.09	38.64 µg/mL	59700 nM				24.32%			
CC(=O)[O-].CC(=O)[O-].CN1CCCN2CCN(CCCN(Cc3cccc(CN4CCCN5CCN(C)CCCN(CC5)CC4)c3)CC2)CC1.F[P-](F)(F)(F)(F)F.F[P-](F)(F)(F)(F)F.[Cu+2].[Cu+2] [RM52, [Cu2(m-CB-Cyclams)(OAc)2][PF6]2]				0.32	0.820 µg/mL	733 nM	5.41%	4.940 µg/mL	4420 nM	0.32
CC(=O)[O-].CC(=O)[O-].CC(=O)[O-].F[P-](F)(F)(F)(F)F.F[P-](F)(F)(F)(F)F.F[P-](F)(F)(F)(F)F.[Co+2].[Co+2].[Co+2].c1c(CN2CCCN3CCN(CCCNCC2)CC3)cc(CN2CCCN3CCN(CCCNCC2)CC3)cc1CN1CCCN2CCN(CCCNCC1)CC2 [CDG025, [Co3(tris-SB-Cyclams)(OAc)3][PF6]3]				0.21	1.800 µg/mL	1140 nM	18.02%	1.500 µg/mL	948 nM	1.50
m-CB-cyclens HCl salt [DJC05C]	0.21	22.89 µg/mL	25700 nM	0.23	0.940 µg/mL	1060 nM	5.41%			
CC(=O)[O-].F[P-](F)(F)(F)(F)F.[Zn+2].c1ccc(CN2CCN3CCN(CC2)CCN(Cc2ccccc2)CC3)cc1 [RM42, [Zn(Bn2Bcyclen)(OAc)]PF6]	0.73	4.73 µg/mL					30.63%			
CC(=O)[O-].F[P-](F)(F)(F)(F)F.[Co+2].c1ccc(CN2CCCN3CCN(CCCN(Cc4ccccc4)CC3)CC2)cc1 [TC11, [Co(Bn2Bcyclam)(OAc)]PF6]	0.10	35.29 µg/mL	52700 nM				24.32%			
CC(=O)[O-].CC(=O)[O-].CN1CCCN2CCN(CCCN(Cc3cccc(CN4CCCN5CCN(C)CCCN(CC5)CC4)c3)CC2)CC1.F[P-](F)(F)(F)(F)F.F[P-](F)(F)(F)(F)F.F[P-](F)(F)(F)(F)F.F[P-](F)(F)(F)(F)F.[Co+3].[Co+3] [CDG010, [Co2(m-CB-Cyclams)(OAc)2][PF6]4]				0.35	0.960 µg/mL	686 nM	11.71%			
CN1CCN2CCN(C)CCN(CC1)CC2.F[P-](F)(F)(F)(F)F.[Cl-].[Cl-].[Mn+3] [CNV06, [Mn(Bcyclen)Cl2]PF6]				0.02	6.390 µg/mL and 5.579 µg/mL	12800 nM and 11200 nM	0.00%			
CC(=O)[O-].CC(=O)[O-].CN1CCN2CCN(CC1)CCN(Cc1cccc(CN3CCN4CCN(C)CCN(CC4)CC3)c1)CC2.F[P-](F)(F)(F)(F)F.F[P-](F)(F)(F)(F)F.[Zn+2].[Zn+2] [DJC07, [Zn2(m-CB-Cyclens)(OAc)2][PF6]2]				0.03	7.410 µg/mL		0.00%			
